From patent US5545547A, “Enzymes as agricultural chemical adjuvants” (priority 1992, dated 1996)
Each block holds one compound with its values, some of them ahead of it.

Tests used:
soybean leaf discs = test: Uptake of radiolabeled agricultural chemicals into leaf discs; type: in vitro ADME
Procedure: Leaf discs (1 cm diameter) were prepared from 9-13 day old soybean plants, and planed them on a nitrocellulose paper that was presoaked with 100 ug/ml stocptomycin in a petri dish. Radioactive chemicals were dissolved in 100 mM sodium phosphate buffer containing 0.05% TRITON X-100 surfactant [drawing 1] where n is an integer from 9 to 10 In addition to TRITON surfactant, (^14 C) uracil solution contained 0.4% ethanol, (^14 C) atrazine contained 10% ethanol (^14 C) indole acetic acid contained 2% ethanol and (^14 C) urea contained 0.2% ethanol. 5 ul of the radioactive chemical solution (9/uci/ml) was applied on the leaf disc and incubated for 5-7 hr at room temperature. After the incubation, leaf discs were rinsed 3 times with 0.025% TRITON X-100 surfactant solution and transferred into separate scintillation vials. Radioactivity taken up by each leaf disc was determined by a scintillation counter after adding 10 ml of Ecolite scintillation fluid into each vial. Ten leaf discs were used for each data point in all experiments. All radioactive chemicals were obtained from Amersham (U.S.A.). The specific activities of the chemicals were as follows:
Cutinase enzyme same as before.
Macerating enzyme, GC219, is an enzyme mixture sold by Genencor which comprises of cellulase, pectinase and hemicellulase.

Soybeans = test: Greenhouse multispecies herbicide screen with/without P. mendocina enzyme; type: in vivo; settings: two weeks after treatment
Source text: (§1) Several plant species including weeds and crops are used in these experiments.
(§2) A number of herbicides from various chemical classes were compared in a multispecies screen for percent chlorosis, necrosis and vigor reduction both with and without application of the enzyme from Pseudomonas mendocina ATCC 53552 described earlier. The herbicides were applied to various plants at the manufacturers recommended doses and at 10% and 40% of the recommended dose. Two different enzyme concentrations were used: 0.5 mg/ml (HE) and 0.05 mg/ml (LE) and applied at the rate of 40 gallons/acre. All spraying solutions were at pH 10 and contained 100 mm sodium phosphate each. Ratings were done at 6 and 12 days after the treatment. All the experiments were carried out in a greenhouse.
(§3) Chlorosis--figures represent percent of plants showing chlorosis.
(§4) Necrosis--figures represent percent of plants showing necrosis.
(§5) Vigor--figures represent percent of plants showing decreased vigor.
(§6) Phytotoxicity--figures represent the average percent of chlorosis, necrosis, and vigor for a given sample.
(§7) The method of Example 1 was used except that the enzyme was applied 2 hours prior to administering the agricultural chemical with the following results. Ratings were done two weeks after treatment

Turnip = test: as above; type: in vivo; settings: two weeks after treatment
Source text: as §1, §2, §3, §4, §5, §6, §7

Trichoderma reesei QM6A = test: Fungicide uptake in soybean plants, leaf extract rated for inhibition of fungal growth; set-up: key: -no inhibition; +weak inhibition; ++=good inhibition; +++=strong inhibition
Procedure: The difoliate leaflets of 9-13 day old soybeam plants were treated with solutions of cutinase (100 ug/ml), BENOMYL fungicide [1-(butylcarbamoyl)-2-benzimidazolecarbamic acid methyl ester] (1 mg/ml), and GC219 (12.6 mg/ml) alone and BENOMYL fungicide [1-(butylcarbamoyl)-2-benzimidazolecarbamic acid methyl ester] plus enzymes. The solutions were dissolved in 100 mM sodium phosphate, pH 7 containing 0.5% TRITON surfactant [drawing 2] where n is an integer from 9 to 10 X-100. In addition to TRITON X-100 surfactant, [drawing 3] where n is an integer from 9 to 10 the BENOMYL fungicide [1-(butylcarbamoyl)-2-benzimidazolecarbamic acid methyl ester] contained 5% Dimethyl formamide. For each experiment 100 ul of solution was applied in 5 ul droplets to each difoliate leaflet. Duplicate plants were treated in this manner. The treated plants were incubated for two hours under normal greenhouse conditions. Identical solutions as those applied to the plants were also incubated for two hours to assure chemical stability under greenhouse conditions. After the incubation, the treated leaves were cut at the petiole and rinsed with a 0.05% TRITON X-100 surfactant [drawing 4] where n is an integer from 9 to 10 solution. Both difoliates were then ground with a mortar and pestle with 1.5 ml of a 100 mM sodium phosphate, pH 7 buffer. The extract was centrifuged and the supernatant was sterile filtered through a 0.45 um disc. The supernatant was then added to CMA media containing 2% agar to yield a final volume of 10 mls. 5 mls was them poured into a single well in a 6 well culture plate. Serial dilutions were made for each solution to achieve 1:1, 1:2 and 1:4 dilution of the plant extract in the agar.
Once the agar was solidified each well was innoculated with spores of Trichoderma reesei QM6A strain. The plates were incubated at 30° C. for 24 hours and the growth of T. reesei was rated.

[1] = system: Pseudomonas mendocina ATCC 53552 lipase, crude preparation of Example 1(C) (includes Lipase 1 and Lipase 2); test: Binding of p-nitrophenyl substrates and turnover kinetics, crude lipase preparation; type: biochemical; settings: 0.1M Tris, 0.1 wt. Triton X-100, pH 8.0, 25° C.
Source text: The recovered filtrate from the Amicon unit was concentrated to a volume of 3 liters on an Amicon ultrafiltration unit with two Romicon Pm 10 modules. The concentrated material was then dialyzed with 20 liters of 0.01M phosphate buffer, pH 7.5, to remove salts and color. Recovery at this stage averaged about 80%. Total activity for this crude preparation was 8.68×10^6 units. A unit of lipase activity is defined as the amount of enzyme which results in an increase of absorbance at 415 nm of 1.0/minute when incubated at 25° C. with 2.0 mM p-nitrophenylbutyrate in 0.1M pH 8.0 Tris-HCl buffer containing 0.1 wt. adjuvant Triton X-100.
The binding of three p-nitrophenyl substrates and the turnover kinetics were studied for the crude preparation of Example 1(C), where reaction conditions were 0.1M Tris with 0.1 wt. adjuvant Triton X-100, pH 8.0, at 25° C. The substrates were p-nitrophenyl caprylate, p-nitrophenyl laurate, and p-nitrophenyl palmitate, and the data is set out in Table

SMILES: CCNc1nc(Cl)nc(NC(C)C)n1 [ATRAZINE, Atrazine]
- Uptake, Radioactivity (cpm) (soybean leaf discs; Herbicide table, atrazine, without any addition of protein): 24007 ± 3984 cpm
- Uptake, Radioactivity (cpm) (soybean leaf discs; Herbicide table, pH 7.0, Cutinase 100 ug/ml, Active Enzyme): 42684 ± 2333 cpm
- Uptake, Radioactivity (cpm) (soybean leaf discs; Herbicide table, pH 7.0, Cutinase 100 ug/ml, Inactive Protein Control (A126)): 24832 ± 2834 cpm
- Uptake, Radioactivity (cpm) (soybean leaf discs; Herbicide table, pH 7.0, Cutinase 200 ug/ml, Active Enzyme): 54133 ± 2874 cpm
- Uptake, Radioactivity (cpm) (soybean leaf discs; Herbicide table, pH 7.0, Cutinase 200 ug/ml, Inactive Protein Control (A126)): 31097 ± 2959 cpm
- CHL (chlorosis) (Soybeans; ATRAZINE 10% dose, High Enzyme): 55%
- NEC (necrosis) (Soybeans; ATRAZINE 10% dose, High Enzyme): 18%
- PHY (phytotoxicity) (Soybeans; ATRAZINE 10% dose, High Enzyme): 12%
- VIG (vigor) (Soybeans; ATRAZINE 10% dose, High Enzyme): 13%
- CHL (chlorosis) (Soybeans; ATRAZINE 10% dose, Low Enzyme): 38%
- NEC (necrosis) (Soybeans; ATRAZINE 10% dose, Low Enzyme): 58%
- PHY (phytotoxicity) (Soybeans; ATRAZINE 10% dose, Low Enzyme): 48%
- VIG (vigor) (Soybeans; ATRAZINE 10% dose, Low Enzyme): 48%
- CHL (chlorosis) (Soybeans; ATRAZINE 10% dose, No Enzyme): 10%
- NEC (necrosis) (Soybeans; ATRAZINE 10% dose, No Enzyme): 33%
- PHY (phytotoxicity) (Soybeans; ATRAZINE 10% dose, No Enzyme): 34%
- VIG (vigor) (Soybeans; ATRAZINE 10% dose, No Enzyme): 50%
- CHL (chlorosis) (Soybeans; ATRAZINE 40% dose, High Enzyme): 80%
- NEC (necrosis) (Soybeans; ATRAZINE 40% dose, High Enzyme): 88%
- PHY (phytotoxicity) (Soybeans; ATRAZINE 40% dose, High Enzyme): 85%
- VIG (vigor) (Soybeans; ATRAZINE 40% dose, High Enzyme): 88%
- CHL (chlorosis) (Soybeans; ATRAZINE 40% dose, Low Enzyme): 100%
- NEC (necrosis) (Soybeans; ATRAZINE 40% dose, Low Enzyme): 100%
- PHY (phytotoxicity) (Soybeans; ATRAZINE 40% dose, Low Enzyme): 100%
- VIG (vigor) (Soybeans; ATRAZINE 40% dose, Low Enzyme): 100%
- CHL (chlorosis) (Soybeans; ATRAZINE 40% dose, No Enzyme): 55%
- NEC (necrosis) (Soybeans; ATRAZINE 40% dose, No Enzyme): 63%
- PHY (phytotoxicity) (Soybeans; ATRAZINE 40% dose, No Enzyme): 58%
- VIG (vigor) (Soybeans; ATRAZINE 40% dose, No Enzyme): 55%
- CHL (chlorosis) (Turnip; ATRAZINE 10% dose, High Enzyme): 25%
- NEC (necrosis) (Turnip; ATRAZINE 10% dose, High Enzyme): 25%
- PHY (phytotoxicity) (Turnip; ATRAZINE 10% dose, High Enzyme): 25%
- VIG (vigor) (Turnip; ATRAZINE 10% dose, High Enzyme): 25%
- CHL (chlorosis) (Turnip; ATRAZINE 10% dose, Low Enzyme): 50%
- NEC (necrosis) (Turnip; ATRAZINE 10% dose, Low Enzyme): 38%
- PHY (phytotoxicity) (Turnip; ATRAZINE 10% dose, Low Enzyme): 46%
- VIG (vigor) (Turnip; ATRAZINE 10% dose, Low Enzyme): 50%
- CHL (chlorosis) (Turnip; ATRAZINE 10% dose, No Enzyme): 38%
- NEC (necrosis) (Turnip; ATRAZINE 10% dose, No Enzyme): 23%
- PHY (phytotoxicity) (Turnip; ATRAZINE 10% dose, No Enzyme): 37%
- VIG (vigor) (Turnip; ATRAZINE 10% dose, No Enzyme): 50%
- CHL (chlorosis) (Turnip; ATRAZINE 40% dose, High Enzyme): 75%
- NEC (necrosis) (Turnip; ATRAZINE 40% dose, High Enzyme): 88%
- PHY (phytotoxicity) (Turnip; ATRAZINE 40% dose, High Enzyme): 84%
- VIG (vigor) (Turnip; ATRAZINE 40% dose, High Enzyme): 88%
- CHL (chlorosis) (Turnip; ATRAZINE 40% dose, Low Enzyme): 90%
- NEC (necrosis) (Turnip; ATRAZINE 40% dose, Low Enzyme): 90%
- PHY (phytotoxicity) (Turnip; ATRAZINE 40% dose, Low Enzyme): 90%
- VIG (vigor) (Turnip; ATRAZINE 40% dose, Low Enzyme): 90%
- CHL (chlorosis) (Turnip; ATRAZINE 40% dose, No Enzyme): 70%
- NEC (necrosis) (Turnip; ATRAZINE 40% dose, No Enzyme): 70%
- PHY (phytotoxicity) (Turnip; ATRAZINE 40% dose, No Enzyme): 74%
- VIG (vigor) (Turnip; ATRAZINE 40% dose, No Enzyme): 83%

SMILES: CCCCNC(=O)n1c(NC(=O)OC)nc2ccccc21 [BENOMYL fungicide, 1-(butylcarbamoyl)-2-benzimidazolecarbamic acid methyl ester]
- Inhibition of Fungal Growth (Trichoderma reesei QM6A; BENOMYL alone (1 mg/ml on leaves), 1:1 dilution of plant extract): -
- Inhibition of Fungal Growth (Trichoderma reesei QM6A; BENOMYL alone, 1:2 dilution): -
- Inhibition of Fungal Growth (Trichoderma reesei QM6A; BENOMYL alone, 1:4 dilution): -
- Inhibition of Fungal Growth (Trichoderma reesei QM6A; Cutinase (100 ug/ml) and BENOMYL, 1:1 dilution): +++
- Inhibition of Fungal Growth (Trichoderma reesei QM6A; Cutinase and BENOMYL, 1:2 dilution): ++
- Inhibition of Fungal Growth (Trichoderma reesei QM6A; Cutinase and BENOMYL, 1:4 dilution): +
- Inhibition of Fungal Growth (Trichoderma reesei QM6A; GC219 (12.6 mg/ml) and BENOMYL, 1:1 dilution): ++
- Inhibition of Fungal Growth (Trichoderma reesei QM6A; GC219 and BENOMYL, 1:2 dilution): +
- Inhibition of Fungal Growth (Trichoderma reesei QM6A; GC219 and BENOMYL, 1:4 dilution): -

SMILES: CN(C)C(=O)Nc1ccc(Cl)c(Cl)c1 [Diuron, diuron]
- Uptake, Radioactivity (cpm) (soybean leaf discs; Herbicide table, Diuron, without any addition of protein): 5739 ± 1376 cpm
- Uptake, Radioactivity (cpm) (soybean leaf discs; Herbicide table, pH 10, Cutinase 200 ug/ml, Active Enzyme): 8592 ± 803 cpm
- Uptake, Radioactivity (cpm) (soybean leaf discs; Herbicide table, pH 10, Cutinase 200 ug/ml, Inactive Protein Control (A126)): 6878 ± 2126 cpm

SMILES: CCCCCCCCCCCC(=O)Oc1ccc([N+](=O)[O-])cc1 [PNPL, p-nitrophenyl laurate]
- Km [1]: 167 µM
- Vmax [1]: 214 μmole/min/mg protein

SMILES: CCCCCCCCCCCCCCCC(=O)Oc1ccc([N+](=O)[O-])cc1 [PNPP, p-nitrophenyl palmitate]
- Km [1]: 183 µM
- Vmax [1]: 112 μmole/min/mg protein

SMILES: NC(N)=O [Urea, urea]
- Uptake, Radioactivity (cpm) (soybean leaf discs; pH 7): 785 ± 141 cpm
- Uptake, Radioactivity (cpm) (soybean leaf discs; pH 10): 398 ± 43 cpm

Other lines, results leading:

- Background uptake, Radioactivity (cpm) (soybean leaf discs): 1292 cpm
SMILES: O=C(O)Cc1c[nH]c2ccccc12 [Indole Acetic Acid]

- Km [1]: 214 µM
- Vmax [1]: 802 μmole/min/mg protein
SMILES: CCCCCCCC(=O)Oc1ccc([N+](=O)[O-])cc1 [PNPC, p-nitrophenyl caprylate]

- Uptake, Radioactivity (cpm) (soybean leaf discs; pH 7): 2090 ± 549 cpm
- Uptake, Radioactivity (cpm) (soybean leaf discs; pH 10): 507 ± 162 cpm
SMILES: O=c1cc[nH]c(=O)[nH]1 [Uracil, uracil]
